Results on 28 molecules are retold here after patent US11136311B2, “Heteroaromatic derivatives as NIK inhibitors” (Janssen Pharmaceutica NV, priority 2016, dated 2021).

SMILES strings stand for the structures. Read-outs that look alike come from different tables or passages of the source.

In test [1] the target is recombinant human NF-kappaB-inducing kinase (NIK/MAP3K14) (Homo sapiens (Human), UniProt Q99558). Nature of the test: Inhibition of auto-phosphorylation of recombinant human NIK/MAP3K14 activity (AlphaScreen). Format: biochemical. The conditions noted are these: averaged values over all measurements on all batches. An outline of the steps:
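GST-tagged NIK at 0.2 nM autophosphorylated for 1 h at 25° C with 25 microM ATP in Tris pH 7.5, MgCl2, 1% DMSO. Phospho-IKK Ser176/180 antibody with AlphaScreen beads detected product. IC50 came from sigmoidal fits of blank-corrected % inhibition.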

Test [2] concerns P-IKKα levels in L363 cells. Nature of the test: Effect of compounds on P-IKKα levels in L363 (NIK translocated multiple myeloma) cells. Format: cell-based, human. As to conditions: averaged values, read-out: Inhibition of pIKKα_L-363 (IC50 (nM)). Summed up:
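L363 myeloma cells were primed 24 h with BAFF, then treated 2 h with compound (8-point, 1:3 dilutions, 1% DMSO) at 37°C. P-IKKα in lysates was measured by Mesoscale sandwich immunoassay, with the full-inhibition blank subtracted. IC50 came from a sigmoidal fit of % inhibition of control against log concentration.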

Test [3] concerns JJN-3 cells. Nature of the test: Antiproliferative activity on JJN-3 (NIK translocated) multiple myeloma cells (CellTiter-Glo). Format: cell-based, human. As to conditions: JJN-3 (NIK translocated) cells, 96 hr, averaged values, read-out: JJN-3 Proliferation inhibition (IC50 (nM)). Summed up:
(§1)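 Suspension myeloma cells in RPMI 1640 with 10% FCS, plated at 15000 (JJN-3) or 20000 (KMS12-BM) cells/well, were treated 96 hr with 9-point 1:3 compound dilutions at 0.3% DMSO. CellTiter-Glo luminescence, minus a time-zero blank, was expressed as % of untreated control growth.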
A general note: Cellular ATP, detected with luciferase, serves as a proxy for viable cell number.

Test [4] relates to KMS12-BM cells. Nature of the test: Antiproliferative activity on KMS12-BM (NIK WT) multiple myeloma cells (CellTiter-Glo). The test is classed as cell-based, human. As to conditions: KMS12-BM (NIK WT) cells, 96 hr, averaged values, read-out: KMS-12 Proliferation inhibition (IC50 (nM)). Summed up: as §1
Where [5] appears, read: Homo sapiens, L-363, L363 cells.

Sequence of recombinant human NF-kappaB-inducing kinase (NIK/MAP3K14) (Q99558 whole entry): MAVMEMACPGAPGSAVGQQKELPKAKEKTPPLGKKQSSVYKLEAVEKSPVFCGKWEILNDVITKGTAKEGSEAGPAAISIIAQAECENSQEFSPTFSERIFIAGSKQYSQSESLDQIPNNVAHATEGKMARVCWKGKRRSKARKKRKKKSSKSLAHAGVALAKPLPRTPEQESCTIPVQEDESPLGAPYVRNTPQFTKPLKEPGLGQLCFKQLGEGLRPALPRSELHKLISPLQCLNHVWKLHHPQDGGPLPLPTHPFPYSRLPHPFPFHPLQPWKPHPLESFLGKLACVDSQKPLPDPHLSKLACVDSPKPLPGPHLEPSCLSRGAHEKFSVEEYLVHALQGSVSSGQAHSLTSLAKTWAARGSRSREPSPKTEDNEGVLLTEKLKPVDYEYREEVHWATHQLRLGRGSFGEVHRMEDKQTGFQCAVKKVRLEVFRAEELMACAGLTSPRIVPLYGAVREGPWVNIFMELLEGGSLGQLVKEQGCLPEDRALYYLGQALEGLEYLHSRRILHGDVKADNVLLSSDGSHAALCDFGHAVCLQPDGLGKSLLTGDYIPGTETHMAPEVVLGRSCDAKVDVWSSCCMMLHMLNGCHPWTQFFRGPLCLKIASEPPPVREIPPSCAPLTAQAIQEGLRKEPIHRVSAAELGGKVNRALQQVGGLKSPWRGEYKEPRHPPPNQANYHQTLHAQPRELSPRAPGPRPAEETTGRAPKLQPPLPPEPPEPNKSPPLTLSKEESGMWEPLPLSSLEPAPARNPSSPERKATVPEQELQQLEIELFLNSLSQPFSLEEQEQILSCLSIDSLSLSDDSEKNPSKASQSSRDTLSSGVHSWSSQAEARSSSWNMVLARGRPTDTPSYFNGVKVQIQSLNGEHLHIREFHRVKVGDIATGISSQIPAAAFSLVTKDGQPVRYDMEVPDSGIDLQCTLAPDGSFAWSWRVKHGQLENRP

Consider `CC(C)CCc1nn(C)cc1Nc1nccc(-c2cc(C#N)c3c(c2)[C@@](C)(CO)CN3)n1` [Compound 100], for which the IC50 in test [1] is 2.1 nM; in test [2] (setting [5]) it was roughly 15 nM; in test [3] (Homo sapiens, JJN-3, 96 h), 54 nM; in test [4] (Homo sapiens, KMS-12-BM, 96 h), greater than 10000 nM.
In the case of `Cc1cc(Nc2nccc(-c3cc(C#N)c4c(c3)[C@@](C)(CO)CN4)n2)n(CC(=O)N2CCCC2)n1` [Compound 88], the IC50 was 6.8 nM in test [1]; 9 nM in test [2] (setting [5]); 2140 nM in test [3] (Homo sapiens, JJN-3, 96 h); greater than 10000 nM in test [4] (Homo sapiens, KMS-12-BM, 96 h).
For the molecule `CC(C)CCc1nn(CCN(C)C)cc1Nc1nccc(-c2cc(C#N)c3c(c2)[C@@](C)(CO)CN3)n1` [Compound 101], the IC50 is 6 nM in test [1]; 234 nM in test [2] (setting [5]); 1510 nM in test [3] (Homo sapiens, JJN-3, 96 h); 5250 nM in test [4] (Homo sapiens, KMS-12-BM, 96 h).
Regarding `Cc1cc(Nc2nccc(-c3cc(C#N)c4c(c3)[C@@](C)(CO)CN4)n2)n(CC2COCCO2)n1` (single isomer, unassigned) [Compound 85], the IC50 in test [1] is 9.8 nM; in test [2] (L363 cells) it was 31 nM; in test [3] it was 380 nM; in test [4], roughly 4900 nM.
Take `CNC(=O)c1cc(Nc2nccc(-c3cc(C#N)c4c(c3)[C@@](C)(CO)CN4)n2)nn1C(C)C` [Compound 103]: the IC50 in test [1] was 2.6 nM; in test [2] (setting [5]), 4 nM; in test [3] (Homo sapiens, JJN-3, 96 h) it was 71 nM; in test [4] (Homo sapiens, KMS-12-BM, 96 h), 3020 nM.
As for `Cc1cc(Nc2nccc(-c3cc(C#N)c4c(c3)[C@@](C)(CO)CN4)n2)n(CC2CCOC2)n1` (single isomer, unassigned) [Compound 81], the IC50 turned out to be 4.3 nM in test [1]; 11 nM in test [2] (setting [5]); 195 nM in test [3] (Homo sapiens, JJN-3, 96 h); 851 nM in test [4].
Regarding `Cc1cc(Nc2nccc(-c3cc(C#N)c4c(c3)C(C)(CO)CN4)n2)n(CC2CCN(CC(=O)N(C)C)CC2)n1` (stereo not shown) [Compound 136], the IC50 in test [1] is 7.2 nM; in test [2] (setting [5]), 562 nM; in test [3] (Homo sapiens, JJN-3, 96 h) it was 724 nM; in test [4] (Homo sapiens, KMS-12-BM, 96 h), greater than 10000 nM.
Regarding `C[C@]1(CO)CNc2c(C#N)cc(-c3cc(Nc4cn(CC(F)F)nc4C4CCOCC4)ncn3)cc21` [Compound 220], the IC50 is 5.6 nM in test [1]; 11 nM in test [2] (setting [5]); 195 nM in test [3] (Homo sapiens, JJN-3, 96 h); greater than 10000 nM in test [4] (Homo sapiens, KMS-12-BM, 96 h).
Turning to `Cc1cc(Nc2nccc(-c3cc(C#N)c4c(c3)[C@@](C)(CO)CN4)n2)nn1CC1CCOCC1` [Compound 60], the IC50 is 2 nM in test [1]; 5 nM in test [2] (setting [5]); 72 nM in test [3] (Homo sapiens, JJN-3, 96 h); roughly 501 nM in test [4] (Homo sapiens, KMS-12-BM, 96 h).
For `Cc1cc(Nc2nccc(-c3cc(C#N)c4c(c3)[C@@](C)(CO)CN4)n2)nn1CCC1CC1` [Compound 95], the IC50 stood at 1.6 nM in test [1]; 4 nM in test [2] (setting [5]); 100 nM in test [3] (Homo sapiens, JJN-3, 96 h); 871 nM in test [4] (Homo sapiens, KMS-12-BM, 96 h).
For `COCCc1nn(CC(F)F)cc1Nc1nccc(-c2cc(C#N)c3c(c2)[C@@](C)(CO)CN3)n1` [Compound 180], in that order: 4.7 nM, 2 nM, 46 nM and roughly 6720 nM.
On the same counts, the results for `CC(C)CCc1c(Nc2nccc(-c3cc(C#N)c4c(c3)[C@@](C)(CO)CN4)n2)cnn1Cc1cncn1C` [Compound 120] are roughly 29 nM, 3 nM, 126 nM and 5010 nM.
In the case of `C[C@]1(CO)CNc2c(C#N)cc(-c3ccnc(Nc4cc(Cl)nn4CC4CCN(CCF)CC4)n3)cc21` [Compound 134], the IC50 is 4.8 nM in test [1]; 107 nM in test [2] (setting [5]); 47 nM in test [3] (Homo sapiens, JJN-3, 96 h); 2240 nM in test [4] (Homo sapiens, KMS-12-BM, 96 h).
On the same counts, the results for `CC(C)CCc1c(Nc2nccc(-c3cc(C#N)c4c(c3)[C@@](C)(CO)CN4)n2)cnn1Cc1nccn1C` [Compound 117] are 6 nM, 11 nM, 269 nM and greater than 10000 nM.
For `CNC(=O)c1cc(Nc2nccc(-c3cc(C#N)c4c(c3)[C@@](C)(CO)CN4)n2)n(C2CCCC2)n1` [Compound 196], in that order: 8.3 nM, 36 nM, 554 nM and 5250 nM.
`CC(C)CCc1c(Nc2nccc(-c3cc(C#N)c4c(c3)[C@@](C)(CO)CN4)n2)cnn1C` [Compound 99]: the IC50 is 2.9 nM in test [1]; 3 nM in test [2] (setting [5]); 288 nM in test [3] (Homo sapiens, JJN-3, 96 h); 9770 nM in test [4] (Homo sapiens, KMS-12-BM, 96 h).
On the same counts, the results for `CC(C)c1nn(CC(F)F)cc1Nc1nccc(-c2cc(C#N)c3c(c2)[C@@](C)(CO)CN3)n1` [Compound 204] are 1.1 nM, 2 nM, 16 nM and roughly 6030 nM.
As to `Cc1nc(Nc2nccc(-c3cc(C#N)c4c(c3)[C@@](C)(CO)CN4)n2)sc1C(=O)N(C)C` [Compound 149], the IC50 in test [1] is 0.7 nM; in test [2] (setting [5]), 8 nM; in test [3] (Homo sapiens, JJN-3, 96 h) it was 50 nM; in test [4] (Homo sapiens, KMS-12-BM, 96 h) it was roughly 741 nM.
On to `Cc1c(Nc2nccc(-c3cc(C#N)c4c(c3)[C@@](C)(CO)CN4)n2)cnn1CCN1CCOCC1` [Compound 170], for which the IC50 was 2.2 nM in test [1]; 7 nM in test [2] (setting [5]); 417 nM in test [3] (Homo sapiens, JJN-3, 96 h); roughly 1780 nM in test [4] (Homo sapiens, KMS-12-BM, 96 h).
Turning to `COCCCn1ncc(Nc2nccc(-c3cc(C#N)c4c(c3)[C@@](C)(CO)CN4)n2)c1CCC(C)C` [Compound 104], the IC50 in test [1] was 3.4 nM; in test [2] (setting [5]), 15 nM; in test [3] (Homo sapiens, JJN-3, 96 h) it was 117 nM; in test [4] (Homo sapiens, KMS-12-BM, 96 h), greater than 10000 nM.
For `Cc1cc(Nc2nccc(-c3cc(C#N)c4c(c3)[C@@](C)(CO)CN4)n2)n(CCC2CC2)n1` [Compound 96], the IC50 was 1.6 nM in test [1]; 12 nM in test [2] (setting [5]); 76 nM in test [3] (Homo sapiens, JJN-3, 96 h); 3800 nM in test [4] (Homo sapiens, KMS-12-BM, 96 h).
On to `Cn1cc(Nc2nccc(-c3cc(C#N)c4c(c3)[C@@](C)(CO)CN4)n2)c(CN2CCOCC2)n1` [Compound 150], for which the IC50 was 15 nM in test [1]; 170 nM in test [2] (setting [5]); 2400 nM in test [3] (Homo sapiens, JJN-3, 96 h); greater than 10000 nM in test [4] (Homo sapiens, KMS-12-BM, 96 h).
With `CC(C)Oc1nn(CC(F)F)cc1Nc1nccc(-c2cc(C#N)c3c(c2)[C@@](C)(CO)CN3)n1` [Compound 188], the IC50 was 2.9 nM in test [1]; 4 nM in test [2] (setting [5]); 138 nM in test [3] (Homo sapiens, JJN-3, 96 h); roughly 8130 nM in test [4] (Homo sapiens, KMS-12-BM, 96 h).
On to `C[C@]1(CO)CNc2c(C#N)cc(-c3ccnc(Nc4cn(CC(F)F)nc4C4CC4)n3)cc21` [Compound 205], for which the IC50 is 2.2 nM in test [1]; 1 nM in test [2] (setting [5]); 5 nM in test [3] (Homo sapiens, JJN-3, 96 h); roughly 4900 nM in test [4] (Homo sapiens, KMS-12-BM, 96 h).
Turning to `COCCCn1nc(Cl)cc1Nc1nccc(-c2cc(C#N)c3c(c2)[C@@](C)(CO)CN3)n1` [Compound 112], the IC50 in test [1] worked out at 2.9 nM; in test [2] (setting [5]) it was 13 nM; in test [3] (Homo sapiens, JJN-3, 96 h) it was 69 nM; in test [4] (Homo sapiens, KMS-12-BM, 96 h), 8910 nM.
For `CC(C)n1nc(Nc2nccc(-c3cc(C#N)c4c(c3)[C@@](C)(CO)CN4)n2)cc1C(=O)NC1CC1` [Compound 164], in that order: 2.6 nM, less than 0.66 nM, 132 nM and 4680 nM.
As for `CC(C)Cn1nc(Cl)cc1Nc1nccc(-c2cc(C#N)c3c(c2)[C@@](C)(CO)CN3)n1` [Compound 107], the IC50 in test [1] amounted to 3.8 nM; in test [2] (setting [5]), 9 nM; in test [3] (Homo sapiens, JJN-3, 96 h), 55 nM; in test [4] (Homo sapiens, KMS-12-BM, 96 h) it was 1350 nM.
On to `Cn1ncc(Nc2nccc(-c3cc(C#N)c4c(c3)[C@@](C)(CO)CN4)n2)c1OC1CC1` [Compound 192], for which the IC50 is 8.1 nM in test [1]; 6 nM in test [2] (setting [5]); 91 nM in test [3] (Homo sapiens, JJN-3, 96 h); greater than 10000 nM in test [4] (Homo sapiens, KMS-12-BM, 96 h).
